Data: BindingDB's records for doi:10.1021/bi00246a005 (Texas A&M University, 1991)

biological target: T1, Carbamoyl-phosphate synthase small chain (Escherichia coli (strain K12), UniProt P0A6F1); experiment: Enzyme Assay; settings: pH 7.5
T1 sequence (P0A6F1 whole entry): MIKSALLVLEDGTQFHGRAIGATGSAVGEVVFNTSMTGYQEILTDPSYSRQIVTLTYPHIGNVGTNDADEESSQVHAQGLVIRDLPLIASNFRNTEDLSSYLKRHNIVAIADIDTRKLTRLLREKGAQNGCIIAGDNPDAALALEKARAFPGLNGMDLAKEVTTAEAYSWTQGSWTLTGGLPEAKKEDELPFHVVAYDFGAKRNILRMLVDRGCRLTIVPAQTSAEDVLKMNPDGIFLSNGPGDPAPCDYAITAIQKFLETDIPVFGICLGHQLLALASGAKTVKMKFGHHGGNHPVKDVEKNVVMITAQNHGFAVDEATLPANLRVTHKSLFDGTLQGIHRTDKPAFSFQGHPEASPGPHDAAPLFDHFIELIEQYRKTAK
Procedure: The rate of carbamoyl phosphate synthesis was determined by use of a coupled enzyme assay with ornithine transcarbamoylase.

Point of comparison: NNC(=O)CCC(N)C(=O)O (stereo not given) [Glutamine Analogue, 3], Ki 340 µM. Against it:
- NC(=O)CCC(N)C(=O)O (stereo not given) [Glutamine Analogue, 1] — 6.3-fold lower, 54 µM
- NC(CCC(=O)NO)C(=O)O (stereo not given) [Glutamine Analogue, 2] — 38-fold lower, 9 µM
- NC(CCC(=O)O)C(=O)O (stereo not given) [Glutamine Analogue, 4] — 82-fold higher, 28000 µM
- COC(=O)CCC(N)C(=O)O (stereo not given) [Glutamine Analogue, 5] — 74-fold higher, 25000 µM
